# According to paper PMC12610573, “New Chlormequat-Based Ionic Liquids as Plant Resistance Inducers” (Molecules, 2025):
# Assays:
# [1] = Solubility tests in representative solvents (Vogel protocol); settings: 25 °C; for Solubility in Hexane: Snyder polarity index 0.0; for Solubility in Toluene: Snyder polarity index 2.3; for Solubility in Isopropanol: Snyder polarity index 4.3; for Solubility in Acetone: Snyder polarity index 5.1; for Solubility in Methanol: Snyder polarity index 6.6; for Solubility in Water: Snyder polarity index 9.0
# Procedure: The solubilities of the prepared ILs in ten representative solvents were determined according to the protocols from Vogel’s Textbook of Practical Organic Chemistry. The solvents chosen for the study were arranged in order of descending value of their Snyder polarity index: water—9.0, methanol—6.6, acetone—5.1, isopropanol—4.3, toluene—2.3, and hexane—0.0.
# [2] = tested on: radish (Raphanus sativus) sprouts; assay: Phytotoxicity test on radish sprouts; format: in vivo; settings: for Mass of 25 Sprouts: radish, 5 days, UTC 3.09 g; for Reduction in Sprout Mass: compared with untreated control
# Procedure: Twenty five seeds of radish (Raphanus sativus) were placed on a filter tissue in a Petri dish. […] Then, sprouts were weighted. All variants of treatment were tested together, with 3 replications (plates) in each of 2 cycles performed. Results were subjected to statistical analysis as described in Section 4.8.
# (§1) Statistical significance of the effect of the treatments of plants with tested compounds on the phytotoxicity and SAR induction was assessed with the ANOVA test performed using the Statistica program StatSoft with software version 9.1 (StatSoft Sp. z o.o., Kraków, Poland). The statistical assumptions of normality and homogeneity of variances were verified prior to conducting the ANOVA tests. Differences between the means were estimated with Tukey’s HSD test at the significance level of p = 0.05.
# [3] = tested on: Tobamovirus tabaci (tobacco mosaic virus, TMV) on Nicotiana tabacum cv. Xanthi; assay: SAR induction assay: necrotic area after TMV inoculation of sprayed tobacco; format: in vivo; settings: for SAR Induction (percentage of necrotic area on leaves): TMV inoculation after 7 days, read 7 days later, UTC 34.54; for Reduction in Necrotic Area: compared with untreated control plants; for Percentage of necrotic spot coverage (leaf shown in supplementary figure): single leaf image
# Procedure: Plants of Nicotiana tabacum cv. Xanthi were grown under greenhouse conditions at 25 °C and 50% relative humidity, under natural daylight during the May–August growing season, with a natural photoperiod. The plants were sprayed with solutions containing the tested compounds.
# In all experiments, the TMV SL-1 isolate Tobamovirus (TMV) was used. To obtain a viral inoculum, Nicotiana tabacum cv. Samsun plants were sap-inoculated with previously virus-infected plant material. After the appearance of disease symptoms on the infected plants (leaf mosaic), the virus was isolated by sucrose density gradient centrifugation with 0.01 M Tris-HCl, pH 7.0, to prepare the infectious inoculum. The concentration of virus in the obtained preparation was determined spectrophotometrically. The samples of TMV were stored at −20 °C until use.
# The tested active substances at a given concentration were sprayed on tobacco plants with three fully developed leaves. The volume of working solution used was equal to 10 mL per plant. The compounds were dissolved in a water/propylene glycol solution (95/5, v/v). The plants of the untreated control variant were sprayed with a water/propylene glycol solution (95/5, v/v) that was used for the preparation of solutions of the tested compounds. After seven days, the plants were mechanically inoculated using purified viral preparations (0.01 ng/mL as described in [34]).
# The plants were inoculated with the TMV inoculum at a concentration of 3.8 × 10^−4 ng per leaf. For each variant of treatment, 3 plants were sprayed, and 3 leaves of each plant were analyzed. The entire experiment was performed in 2 replicates. Necrotic areas on the leaves were determined using ImageJ software.
# The surface of a leaf or an area with necrotic spots is represented by a set of pixels in the image, which are counted by the program. Reduction in necrotic area (ISAR) is expressed by the following formula:(1) ISAR=100−(At/Ac∗100) where At is the ratio of the area of necrotic spots caused by viral infection that appeared on the leaf treated with the test substance to the whole area of the leaf; Ac is the ratio of the area of the necrotic spots caused by viral infection that appeared on the leaf of the control plant to the whole area of the leaf.
# as §1
# [4] = Thermogravimetric analysis (TGA), thermal stability; settings: TGA under nitrogen, 10 °C/min; for Thermal Stability T5%onset: 5% weight loss onset; for Thermal Stability Tonset: decomposition onset
# Procedure: TGA was performed on a TGA Q50 (Texas Instruments, Dallas, TX, USA) under nitrogen. Samples (5–10 mg) were heated from 25 °C to 500 °C at 10 °C/min with an isothermal step at 85 °C for 10 min. T5%onset and Tonset values were recorded.
Structure (SMILES),Solubility in Hexane [1],Solubility in Toluene [1],Solubility in Isopropanol [1],Solubility in Acetone [1],Solubility in Methanol [1],Solubility in Water [1],Mass of 25 Sprouts ([2]; 125 mg/L),Reduction in Sprout Mass ([2]; 250 mg/L) [%],Mass of 25 Sprouts ([2]; 250 mg/L),SAR Induction (percentage of necrotic area on leaves) ([3]; 125 mg/L spray),Reduction in Necrotic Area ([3]; 125 mg/L) [%],SAR Induction (percentage of necrotic area on leaves) ([3]; 250 mg/L spray),Reduction in Necrotic Area ([3]; 250 mg/L) [%],Thermal Stability T5%onset [4] [°C],Thermal Stability Tonset [4] [°C],Reduction in Sprout Mass ([2]; 125 mg/L) [%],Percentage of necrotic spot coverage (leaf shown in supplementary figure) ([3]; 125 mg/L) [%],Percentage of necrotic spot coverage (leaf shown in supplementary figure) ([3]; 250 mg/L) [%],Difference in percentage reduction in leaf necrotic area between 125 mg/L and 250 mg/L ([3]; in vivo)
C[N+](C)(C)CCCl.O=C([O-])c1ccc(Cl)cc1O [[CC][4-ClSal]],− (insoluble),− (insoluble),+/− (of limited solubility),− (insoluble),+ (soluble),+/− (of limited solubility),2.84 hi D g,19.63,2.48 ij C g,12.47 bc B %,63.9,7.85 bcde A %,77.3,205.3,137.2,–,–,–,–
C[N+](C)(C)CCCl.O=C([O-])c1cc(Cl)ccc1O [[CC][5-ClSal]],− (insoluble),− (insoluble),+/− (of limited solubility),− (insoluble),+ (soluble),+/− (of limited solubility),2.50 efg D,30.15,2.16 fgh C,3.15 a AB %,90.9,1.58 a A %,95.4,217.1,138.5,19.15,2.28,1.15,approximately 4.5 percentage points
C[N+](C)(C)CCCl.O=C([O-])c1cccc(Cl)c1O [[CC][3-ClSal]],− (insoluble),− (insoluble),+/− (of limited solubility),− (insoluble),+ (soluble),+/− (of limited solubility),2.60 fgh D,36.68,1.96 ef C g,2.52 a AB %,92.7,1.39 a A %,96.0,196.2,136.1,15.97,0.79,0.27,–
C[N+](C)(C)CCCl.O=C([O-])c1cc(Cl)nc(Cl)c1 [[CC][Ina]],− (insoluble),− (insoluble),+/− (of limited solubility),− (insoluble),+ (soluble),+ (soluble),2.63 fgh D,28.21,2.22 gh C,14.80 cd AB %,57.2,12.52 ef A %,63.8,177.2,–,15.05,–,–,–
